Measurements: patent US20220282304A1, “SAME-SAMPLE ANTIBIOTIC SUSCEPTIBILITY TEST AND RELATED COMPOSITIONS, METHODS AND SYSTEMS” (CALIFORNIA INSTITUTE OF TECHNOLOGY, priority 2021, published 2022)

Tested on: Escherichia coli K12
Assay: Digital same-sample filtration AST at four cell densities (Example 7)
Format: cell-based
Details: for treated condition EINAPV (fraction extracellular): untreated EINAPV 0; for Both (number of wells) / Empty (number of wells) / Extracellular only (number of wells) / Intracellular only (number of wells): 60 minutes 37° C., qPCR
Procedure: The inoculum was small enough that no detectable difference in the sample's optical density at 600 mm (OD600) was detectable by a spectrophotometer with a sensitivity of 0.01 absorbance units. After an incubation at 37° C., the media became turbid with an OD600 of 0.22 absorbance units after 2.25 hours of incubation.
In this experiment, the number and volume of sample partitions was restricted, for logistical reasons, to 96 partitions 10 μL in volume, specifically the wells of a 96-well plate. A goal was chosen of having a >98% chance of ending up with at least 48 empty partitions. When all partitions are the same volume, the following formula relates the expected number of empty partitions, the partition volume, and the density of cells.
N is the total number of partitions, n is the number of empty partitions, V is the partition volume, D is the density of cells, and t is a threshold probability chosen by the practitioner. Thus, in order to achieve digital sample partitioning with the available 96-well plate, each 10 μL sample of the specimen practically contains between 0.02 and 2.5 cells on average. In this experiment, densities of 0, 0.5, 1, and 2 cells per sample were targeted. Due to systematic bias in the conversion of OD600 to cell density, the actual densities achieved were closer to 0, 0.09375, 0.1875, and 0.375 cells per sample. The specimen itself was diluted to a density of 37.5 CFU/mL (0.0375 cells/μL), 18.75 CFU/mL, and 9.375 CFU/mL to achieve the target sample densities. For the 0 cell samples, the specimen comprised sterile media.
To begin the AST protocol, the 4 contrived clinical specimen dilutions were physically split into the 24 partitions each by transferring 10 μL of the sample, in 24 separate transfers (actually 3 transfers with a multichannel pipette of each dilution), to wells of a 96-well microtiter plate. Each well contained 15 μL of Mueller-Hinton Broth (MHB) growth media. Half of the wells (48) contained 0 μg/mL of dissolved ETP antibiotic and served as reference condition antibiotic exposures. The other half of the wells contained 1.67 μg/mL of ETP (for a final concentration of 1.0 μg/mL) and served as 48 treated condition antibiotic exposures. Thus, in total there were 8 groups of 12 replicate wells: a treated and an untreated group of wells for each of the four specimen dilutions. In actuality, however, due to operator error, 4 treated 0 cell conditions and 4 untreated 0 cell conditions were converted into the corresponding 0.1875 cell conditions.
The 96 antibiotic exposures were incubated at 37° C. for 60 minutes.
The entire volume of each antibiotic exposure was transferred to a Millipore® 96-well sterile polystyrene MultiScreenHTS® filter plate (Millipore-Sigma MSGVS2210). Each well of the filter plate contained a hydrophilic polyvinylidene fluoride (PVDF) filter membrane with a 0.22 μm pore size. A 96-well polypropylene microtiter plate was affixed to the bottom of the filter plate. At approximately 78 minutes after the start of the exposure, the antibiotic exposures were centrifuged at 2200 relative centrifugal force to speed the passage of the antibiotic exposure through the filter and into 96-well microtiter plate. The collected fluid was called the “filtrate.” It is expected that the filtrate will contain all or most of the extracellular nucleic acids present in the antibiotic exposure, but none of the intracellular nucleic acids in the antibiotic exposure.
As soon as possible (e.g. 0-10 minutes) after the centrifugation of the filter plate, […] of fresh MHB media was spun through the filters after the first centrifugation (above) to wash away residual extracellular nucleic acids present in the small amount (about 3 μL) of fluid wetting the filters. This wash fluid is not collected with the filtrates.
The filtrates were frozen at −80° C. to prevent hypothetical rRNA degradation. Lucigen DNA Extraction Buffer was not used to “extract” the filtrate DNA. […]

[1] = Treated 1.0 μg ETP/mL, batch culture dilution 0 cells, 8 partitions
[2] = Treated 1.0 μg ETP/mL, batch culture dilution 0.09375 cells, 12 partitions
[3] = Treated 1.0 μg ETP/mL, batch culture dilution 0.1875 cells, 16 partitions
[4] = Treated 1.0 μg ETP/mL, batch culture dilution 0.375 cells, 12 partitions
[5] = Treated 1.0 μg ETP/mL, batch culture dilution 0 cells
[6] = Treated 1.0 μg ETP/mL, batch culture dilution 0.09375 cells
[7] = Treated 1.0 μg ETP/mL, batch culture dilution 0.1875 cells
[8] = Treated 1.0 μg ETP/mL, batch culture dilution 0.375 cells

C[C@@H](O)[C@H]1C(=O)N2C(C(=O)O)=C(S[C@@H]3CN[C@H](C(=O)Nc4cccc(C(=O)O)c4)C3)[C@H](C)[C@H]12 [ETP, ertapenem]
treated condition EINAPV (fraction extracellular) (1.0 μg/mL ETP, non-zero dilution 0.09375 cells): 1 | treated condition EINAPV (fraction extracellular) (1.0 μg/mL ETP, non-zero dilution 0.1875 cells): 1 | treated condition EINAPV (fraction extracellular) (1.0 μg/mL ETP, non-zero dilution 0.375 cells): 1 | susceptibility call (measured TRPQ higher than APTV) (1.0 μg/mL ETP, one pooled treated vs one pooled reference condition): susceptible | susceptibility call (binomial exact test) (1.0 μg/mL ETP, significance threshold 0.001): susceptible | Both (number of wells) [1]: 0 | Empty (number of wells) [1]: 8 | Extracellular only (number of wells) [1]: 0 | Intracellular only (number of wells) [1]: 0 | Both (number of wells) [2]: 0 | Empty (number of wells) [2]: 10 | Extracellular only (number of wells) [2]: 2 | Intracellular only (number of wells) [2]: 0 | Both (number of wells) [3]: 0 | Empty (number of wells) [3]: 13 | Extracellular only (number of wells) [3]: 3 | Intracellular only (number of wells) [3]: 0 | Both (number of wells) [4]: 0 | Empty (number of wells) [4]: 2 | Extracellular only (number of wells) [4]: 10 | Intracellular only (number of wells) [4]: 0 | Intact (expected number of cells) [5]: 0 | Killed (expected number of cells) [5]: 0 | Intact (expected number of cells) [6]: 0 | Killed (expected number of cells) [6]: 2.14 | Intact (expected number of cells) [7]: 0 | Killed (expected number of cells) [7]: 3.32 | Intact (expected number of cells) [8]: 0 | Killed (expected number of cells) [8]: 15.69 | estimated cells lysed, all treated samples pooled (Treated 1.0 μg ETP/mL, sum over dilutions, rounded to 21 lysis events): 21.25
